Assay results: patent publication US8134015B2, “Compound inhibiting in vivo phosphorous transport and medicine containing the same” (Kyowa Hakko Kirin Co., Ltd., priority 2003, dated 2012)

Molecular target: T1, rat NaPi-2b (Rattus norvegicus, UniProt Q9JJ09)
T1 construct: expressed in transfected cells; host or cells: Xenopus oocytes injected with cRNA
T1 sequence (Q9JJ09 1-695): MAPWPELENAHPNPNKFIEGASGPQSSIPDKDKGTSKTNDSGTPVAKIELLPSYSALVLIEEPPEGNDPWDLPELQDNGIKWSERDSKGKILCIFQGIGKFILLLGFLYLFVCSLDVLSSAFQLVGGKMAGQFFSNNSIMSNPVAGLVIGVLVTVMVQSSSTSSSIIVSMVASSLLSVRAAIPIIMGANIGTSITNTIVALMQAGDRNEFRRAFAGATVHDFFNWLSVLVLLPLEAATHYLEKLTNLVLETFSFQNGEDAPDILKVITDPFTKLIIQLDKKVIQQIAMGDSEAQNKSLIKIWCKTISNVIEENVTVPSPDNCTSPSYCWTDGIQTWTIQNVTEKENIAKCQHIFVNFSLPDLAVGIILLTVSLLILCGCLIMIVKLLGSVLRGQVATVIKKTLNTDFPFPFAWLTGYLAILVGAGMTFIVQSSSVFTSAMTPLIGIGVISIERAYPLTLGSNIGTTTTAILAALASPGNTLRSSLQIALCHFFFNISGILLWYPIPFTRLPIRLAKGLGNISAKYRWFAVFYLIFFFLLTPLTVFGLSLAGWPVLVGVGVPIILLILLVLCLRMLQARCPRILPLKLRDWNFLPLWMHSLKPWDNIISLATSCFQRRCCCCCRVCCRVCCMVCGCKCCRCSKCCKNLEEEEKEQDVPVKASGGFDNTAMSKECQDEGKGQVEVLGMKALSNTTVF
Assay: Sodium-dependent phosphate uptake of Xenopus oocytes which expressed NaPi-2b (32P)
Format: cell-based
Settings: Xenopus oocytes expressing rat NaPi-2b, 32P radioactive phosphorus; read-out: IC50 (phosphate uptake inhibitory activity)
How it was run: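 Read-out is 32P phosphate uptake into Xenopus oocytes expressing rat intestinal NaPi-2b (cRNA injection, 2-day culture). Inhibition at 300 μM and 100 μM was derived from a single inhibition curve and given as percent.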

`O=C(Nc1ccccc1C(=O)N/N=C/c1cccc(F)c1)c1cccc(OC(F)(F)F)c1` [Compound 120] and `O=C(Nc1ccccc1C(=O)N/N=C/c1cccc(Cl)c1)c1cccc(OC(F)(F)F)c1` [Compound 122] cannot be ordered by IC50: 2.55 µM for the first, under 3 µM for the second.

Going from `O=C(Nc1ccccc1C(=O)N/N=C/c1ccc(Cl)c(C(F)(F)F)c1)c1ccccn1` [Compound 508, Pyridin-2-carboxylic acid [2-(4-chloro-3-trifluoromethyl-benzylidene-hydrazinocarbonyl)-phenyl]-amide] to `O=C(Nc1ccccc1C(=O)N/N=C/c1cccc(F)c1)c1ccccn1` [Compound 505, Pyridin-2-carboxylic acid [2-(3-fluoro-benzylidene-hydrazinocarbonyl)-phenyl]-amide], the IC50 rises from 0.48 µM to 1.21 µM (2.5-fold).

Going from `CC(O)CN(Cc1cccc(C(=O)Nc2ccc(F)cc2C(=O)Nc2ccc(F)cc2C(=O)N/N=C/c2cccc(F)c2)c1)CC(C)O` (stereo not drawn) [Compound 988, 2-(3-{[Bis-(2-hydroxy-propyl)-amino]-methyl}-benzoylamino)-5-fluoro-N-[4-fluoro-2-(3-fluoro-benzylidene-hydrazinocarbonyl)-phenyl]-benzamide] to `Cc1ccc(/C=N/NC(=O)c2cc3ccccc3cc2NC(=O)c2cccc(CN(CC(C)O)CC(C)O)c2)cc1C` (stereo not drawn) [Compound 961, 3-{[Bis-(2-hydroxy-propyl)-amino]-methyl}-N-[3-(3,4-dimethyl-benzylidene-hydrazinocarbonyl)-naphthalen-2-yl]-benzamide], the IC50 falls from 3.88 µM to under 1 µM. The second is the more potent here.

First: COc1ccc(/C=N/NC(=O)c2cc(OCCCCF)ccc2NC(=O)c2cccc(CSCCO)c2)cc1 [Compound 1055, N-[4-(4-Fluoro-butoxy)-2-(4-methoxy-benzylidene-hydrazinocarbonyl)-phenyl]-3-(2-hydroxy-ethylsulfanylmethyl)-benzamide]
Second: COc1ccc(/C=N/NC(=O)c2cc(Cl)ccc2NC(=O)c2cccc(CSCC(O)CO)c2)cc1 (stereo not drawn) [Compound 1011, N-[4-Chloro-2-(4-methoxy-benzylidene-hydrazinocarbonyl)-phenyl]-3-(2,3-dihydroxy-propylsulfanylmethyl)-benzamide]
The IC50 of the first is 1.5-fold higher: 1.96 µM for the first, 1.28 µM for the second.

`Cc1csc(NC(=O)c2cccc(CSc3nc[nH]n3)c2)c1C(=O)N/N=C/c1ccc(Cl)c(C(F)(F)F)c1` [Compound 555, N-[3-(4-Chloro-3-trifluoromethyl-benzylidene-hydrazinocarbonyl)-4-methyl-thiophen-2-yl]-3-(1H-[1,2,4]triazol-3-ylsulfanylmethyl)-benzamide] and `CCN(CC)CCN(Cc1cccc(C(=O)Nc2sc3c(c2C(=O)N/N=C/c2ccc(Cl)c(C(F)(F)F)c2)CCCC3)c1)C(C)=O` [Compound 656, 3-{[Acetyl-(2-diethylamino-ethyl)-amino]-methyl}-N-[3-(4-chloro-3-trifluoromethyl-benzylidene-hydrazinocarbonyl)-4,5,6,7-tetrahydro-benzo[b]thiophen-2-yl]-benzamide] cannot be ordered by IC50: under 3 µM for the first, 2.98 µM for the second.

`O=C(Nc1ccc(Br)cc1C(=O)N/N=C/c1ccc(F)cc1)c1cccnc1` [Compound 173, N-[4-Bromo-2-(4-fluoro-benzylidene-hydrazinocarbonyl)-phenyl]-nicotinamide] and `COc1ccc(C(=O)Nc2ccc(Br)cc2C(=O)N/N=C/c2ccccc2F)cc1OC` [Compound 28, N-[4-Bromo-2-(2-fluoro-benzylidene-hydrazinocarbonyl)-phenyl]-3,4-dimethoxy-benzamide] are within 1.5-fold of each other in IC50: 7.4 µM for the first, 5.12 µM for the second.

Compared with `Cc1ccc(/C=N/NC(=O)c2c(C)csc2NC(=O)c2cccc(CN3CCC(N4CCCCC4)CC3)c2)cc1` [Compound 570, 3-[1,4′]Bipiperidinyl-1′-ylmethyl-N-[4-methyl-3-(4-methyl-benzylidene-hydrazinocarbonyl)-thiophen-2-yl]-benzamide], `O=C(Nc1ccc(Cl)cc1C(=O)N/N=C/c1cccc(F)c1)c1cccc(CN2CCC(N3CCCCC3)CC2)c1` [Compound 368, 3-[1,4′]Bipiperidinyl-1′-ylmethyl-N-[4-chloro-2-(3-fluoro-benzylidene-hydrazinocarbonyl)-phenyl]-benzamide] is 4.4-fold lower in IC50: 6.04 µM for the first, 1.37 µM for the second.

`CCN(CC)CCN(C)Cc1cccc(C(=O)Nc2ccc(I)cc2C(=O)N/N=C/c2ccc(C)cc2)c1` [Compound 475, 3-{[(2-Diethylamino-ethyl)-methyl-amino]-methyl}-N-[4-iodo-2-(4-methyl-benzylidene-hydrazinocarbonyl)-phenyl]-benzamide] and `CCN(CC)CCN(C)Cc1cccc(C(=O)Nc2ccc(Cl)cc2C(=O)N/N=C/c2ccc(C)cc2)c1` [Compound 382, N-[4-Chloro-2-(4-methyl-benzylidene-hydrazinocarbonyl)-phenyl]-3-{[(2-diethylamino-ethyl)-methyl-amino]-methyl}-benzamide] cannot be ordered by IC50: under 3 µM for the first, 1.04 µM for the second.

First: COc1ccc(C(=O)Nc2ccc(Cl)cc2C(=O)N/N=C/c2cccc(C)c2)cc1OC [Compound 67, N-[4-Chloro-2-(3-methyl-benzylidene-hydrazinocarbonyl)-phenyl]-3,4-dimethoxy-benzamide]
Second: COc1ccc(C(=O)Nc2ccccc2C(=O)N/N=C/C(C)=C/c2ccccc2)cc1OC [Compound 7, 3,4-Dimethoxy-N-[2-(2-methyl-3-phenyl-allylidene-hydrazinocarbonyl)-phenyl]-benzamide]
The IC50 of the first is 11-fold lower: 0.65 µM for the first, 7.15 µM for the second.

First: Cc1ccc(/C=N/NC(=O)c2cscc2NC(=O)c2cccc(CN(CC(C)O)CC(C)O)c2)cc1 (stereo not drawn) [Compound 976, 3-{[Bis-(2-hydroxy-propyl)-amino]-methyl}-N-[4-(4-methyl-benzylidene-hydrazinocarbonyl)-thiophen-3-yl]-benzamide]
Second: Cc1ccc(/C=N/NC(=O)c2cc(Cl)ccc2NC(=O)c2cccc(CN(CCO)CCO)c2)cc1C [Compound 406, 3-{[Bis-(2-hydroxy-ethyl)-amino]-methyl}-N-[4-chloro-2-(3,4-dimethyl-benzylidene-hydrazinocarbonyl)-phenyl]-benzamide]
The IC50 of the first is 12-fold higher: 10.7 µM for the first, 0.88 µM for the second. The second is the more potent here.

First: COc1ccc(C(=O)Nc2ccccc2C(=O)N/N=C/c2ccc(OC)c(Br)c2)cc1 [Compound 100, N-[2-(3-Bromo-4-methoxy-benzylidene-hydrazinocarbonyl)-phenyl]-4-methoxy-benzamide]
Second: COc1cccc(/C=N/NC(=O)c2cc(Cl)ccc2NC(=O)c2ccc(CN(C)CCO)cc2)c1 [Compound 418, N-[4-Chloro-2-(3-methoxy-benzylidene-hydrazinocarbonyl)-phenyl]-4-{[(2-hydroxy-ethyl)-methyl-amino]-methyl}-benzamide]
The IC50 of the first is 15-fold lower: 0.64 µM for the first, 9.38 µM for the second.

Compared with `CCN(CC)CCN(C)Cc1cccc(C(=O)Nc2cc(OCCOC)c(OCCOC)cc2C(=O)N/N=C/c2cccc(F)c2)c1` [Compound 1028, 3-{[(2-Diethylamino-ethyl)-methyl-amino]-methyl}-N-[2-(3-fluoro-benzylidene-hydrazinocarbonyl)-4,5-bis-(2-methoxy-ethoxy)-phenyl]-benzamide], `CCN(CC)CCN(C)Cc1cccc(C(=O)Nc2ccc(N3CCCC3)cc2C(=O)N/N=C/c2ccc(C)c(C)c2)c1` [Compound 916, 3-{[(2-Diethylamino-ethyl)-methyl-amino]-methyl}-N-[2-(3,4-dimethyl-benzylidene-hydrazinocarbonyl)-4-pyrrolidin-1-yl-phenyl]-benzamide] is 5.6-fold lower in IC50: 29.1 µM for the first, 5.22 µM for the second.

Compared with `Cc1cccc(/C=N/NC(=O)c2cc(Br)ccc2NC(=O)c2ccc(CSc3ccncc3)cc2)c1` [Compound 257, N-[4-Bromo-2-(3-methyl-benzylidene-hydrazinocarbonyl)-phenyl]-4-(pyridin-4-ylsulfanylmethyl)-benzamide], `O=C(Nc1ccc(Cl)cc1C(=O)N/N=C/c1ccc(Cl)c(C(F)(F)F)c1)c1ccncc1` [Compound 194, N-[4-Chloro-2-(4-chloro-3-trifluoromethyl-benzylidene-hydrazinocarbonyl)-phenyl]-isonicotinamide] is higher in IC50: under 3 µM for the first, 7.36 µM for the second. The first is the more potent here.

Work on `O=C(Nc1ccccc1C(=O)N/N=C/c1ccccc1)c1ccccc1` [Compound 224, N-[2-(Benzylidene-hydrazinocarbonyl)-phenyl]-benzamide] yielded an IC50 of 20 µM.

Same assay, conditions: phosphate uptake, oocytes expressing rat NaPi-2b; 300 μM, determined from inhibition curve

Going from `O=C(Nc1ccccc1C(=O)N/N=C/c1ccccc1F)c1ccccc1F` [Compound 236, 2-Fluoro-N-[2-(2-fluoro-benzylidene-hydrazinocarbonyl)-phenyl]-benzamide] to `O=C(Nc1ccc(Br)cc1C(=O)N/N=C/c1cccc(F)c1)c1ccc(CN2CCN(c3ccccn3)CC2)cc1` [Compound 775, N-[4-Bromo-2-(3-fluoro-benzylidene-hydrazinocarbonyl)-phenyl]-4-(4-pyridin-2-yl-piperazin-1-ylmethyl)-benzamide], the inhibition at 300 µM falls from 49.4% to 44.6%.

Work on `CCOCCN(CCOCC)Cc1ccc(C(=O)Nc2ccc(Br)cc2C(=O)N/N=C/c2cccc(OC)c2)cc1` [Compound 740, 4-{[Bis-(2-ethoxy-ethyl)-amino]-methyl}-N-[4-bromo-2-(3-methoxy-benzylidene-hydrazinocarbonyl)-phenyl]-benzamide] yielded an inhibition at 300 µM of 58.5%.
